Assay results reported in US7763733B2, “Ritonavir analogous compound useful as retroviral protease inhibitor, preparation of the ritonavir analogous compound and pharmaceutical composition for the ritonavir analogous compound” (Cristalia Produtos Quimicos Farmaceuticos Ltda., priority 2004, dated 2010).

Columns and labels:
HIV = conditions: anti-HIV activity test, values as described in U.S. Pat. No. 5,541,206; cited from earlier work
HIV pNL4-3 (subtype B) = test: Antiviral activity in HIV-infected MT-4 cells (MTT cellular viability); type: cell-based; conditions: MOI 0.002, MTT staining at the sixth day, ritonavir as internal control
Experimental: The anti-HIV activity of the compound of the present invention was determined using MT-4 cells, a lymphocytic cell line established in culture, CD4^+, and expressing HIV-1 […] co-receptors. The cells were infected using a plate having 96 wells containing 10^4 cells/well. The cells were infected with MOI (Multiplicity Of Infection) of 0.002 (NIH requirement=0.001 to 0.01). The drugs were initially diluted in dimethyl sulfoxide (DMSO) to a final concentration of 20 mM and later in RPMI 1640 base medium to a concentration of 200 μM. […] The culture medium utilized for this procedure was RPMI 1640 including 10% bovine fetal serum, antibiotics […]/penicillin and L-glutamine. The most concentrated well has a final concentration of 10.000 μM being followed by the indicated dilutions: 2.0 μM; 0.400 μM; 0.0800 μM; 0.016 μM; 0.0032 μM; 0.00064 μM and 0.000128 μM. The ninth well is considered as the infection control, without adding the drug. Each line having […] infected wells is produced in triplicate for later statistics analyses. […]
The infection test is maintained in an incubator having 5% of CO2 at 37° C. and monitored daily using phase optical microscopy method to verify appearance of syncytia (multinuclear cells). […]

Question: For CC(C)c1nc(CN(C)C(=O)NC(C(=O)NC(Cc2ccccc2)CC(O)C(Cc2ccccc2)NC(=O)OCc2cnc(C(C)C)s2)C(C)C)cs1 (stereo not shown) [example 45C], which IC50 (HIV) is on record?
Answer: 36 to 40 nM

Question: For CC(C)c1nc(CN(C)C(=O)NC(C(=O)NC(Cc2ccccc2)CC(O)C(Cc2ccccc2)NC(=O)OCc2cncs2)C(C)C)cs1 [ritonavir, (2S,3S,5S)-5-[N—[N—[[N-methyl-N-[(2-isopropyl-4-thiazolyl)methyl]amino]carbonyl]vanilyl]amino-2-[N [(5-thiazolyl)methoxycarbonyl]amino-1,6-diphenyl-3-hydroxyhexane], which IC50 (HIV) is on record?
Answer: 25 to 40 nM

Question: With CC(C)Cc1nc(CN(C)C(=O)N[C@H](C(=O)N[C@@H](Cc2ccccc2)C[C@H](O)[C@H](Cc2ccccc2)NC(=O)OCc2cncs2)C(C)C)cs1 [example 59G] as the compound, how does the IC50 (HIV) read?
Answer: 110 to 130 nM

Question: Which “anti-HIV activity (EC50, FIG. 2) in comparison with ritonavir and analogs” value (HIV pNL4-3 (subtype B)) does the source give for CC(C)c1nc(CN(C)C(=O)N[C@H](C(=O)N[C@@H](Cc2ccccc2)C[C@H](O)[C@H](Cc2ccccc2)NC(=O)[C@@H](NC(=O)N(C)Cc2csc(C(C)C)n2)C(C)C)C(C)C)cs1 [example 1C, (2S,3S,5S)-2,5-bis-[N—[N—[[N-methyl-N-[(2-isopropyl-4-thiazolyl)methyl]amino]carbonyl]valinyl]amino]-1,6-diphenyl-3-hydroxyhexane] here?
Answer: surprisingly superior activity
